Laboratory results taken from ChEMBL document CHEMBL1201862, “PubChem BioAssay data set” (2004).
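48-hour exposure; five concentrations; linearly interpolated endpoints. GI50 is the concentration that inhibits growth by half.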 Calls of active or inactive are those of the source. Rule as the data show it: active = GI50 up to about 1.1 µM and inactive = higher.

Columns and labels:
Assay in all cases: NCI anticancer screen, dose series, 48 h
786-0 = test system: 786-0
A498 = test system: A498
A549 = test system: A549
ACHN = test system: ACHN
CAKI-1 = test system: CAKI-1
CCRF-CEM = test system: CCRF-CEM
COLO 205 = test system: COLO 205
DU-145 = test system: DU-145
EKVX = test system: EKVX
HCC 2998 = test system: HCC 2998
HCT-116 = test system: HCT-116
HCT-15 = test system: HCT-15
HL-60 = test system: HL-60
HOP-62 = test system: HOP-62
HOP-92 = test system: HOP-92
HT-29 = test system: HT-29
Hs-578T = test system: Hs-578T
IGROV-1 = test system: IGROV-1
K562 = test system: K562
KM12 = test system: KM12
LOX IMVI = test system: LOX IMVI
M14 = test system: M14
MDA-MB-231 = test system: MDA-MB-231
MDA-N = test system: MDA-N
MOLT-4 = test system: MOLT-4
Malme-3M = test system: Malme-3M
NCI-H226 = test system: NCI-H226
NCI-H23 = test system: NCI-H23
NCI-H460 = test system: NCI-H460
NCI-H522 = test system: NCI-H522
NCI/ADR-RES = test system: NCI/ADR-RES
OVCAR-3 = test system: OVCAR-3
OVCAR-4 = test system: OVCAR-4
OVCAR-5 = test system: OVCAR-5
OVCAR-8 = test system: OVCAR-8
PC-3 = test system: PC-3
RPMI-8226 = test system: RPMI-8226
RXF 393 = test system: RXF 393
SF-268 = test system: SF-268
SF-539 = test system: SF-539
SK-MEL-28 = test system: SK-MEL-28
SK-MEL-2 = test system: SK-MEL-2
SK-MEL-5 = test system: SK-MEL-5
SN12C = test system: SN12C
SNB-19 = test system: SNB-19
SNB-75 = test system: SNB-75
SR = test system: SR
SW-620 = test system: SW-620
TK-10 = test system: TK-10
U-251 = test system: U-251
UACC-257 = test system: UACC-257
UACC-62 = test system: UACC-62
UO-31 = test system: UO-31

O=c1[nH]n(Cc2ccccn2)c2ccc([N+](=O)[O-])cc12 was tested, and the GI50 (786-0) was > 100 µM (inactive), the GI50 (A498) was > 100 µM (inactive) and the GI50 (A549) was > 100 µM (inactive). For the same compound, the GI50 (ACHN) was > 100 µM (inactive), the GI50 (CAKI-1) was > 100 µM (inactive) and the GI50 (CCRF-CEM) was > 100 µM (inactive). The GI50 (COLO 205) was > 100 µM (inactive), the GI50 (DU-145) was > 100 µM (inactive) and the GI50 (EKVX) was > 100 µM (inactive). The GI50 (HCC 2998) was > 100 µM (inactive), the GI50 (HCT-116) was > 100 µM (inactive) and the GI50 (HCT-15) was > 100 µM. The GI50 (HL-60) was > 100 µM (inactive), the GI50 (HOP-62) was > 100 µM (inactive) and the GI50 (HOP-92) was > 100 µM (inactive). The GI50 (HT-29) was > 100 µM (inactive), the GI50 (Hs-578T) was > 100 µM (inactive) and the GI50 (IGROV-1) was > 100 µM (inactive). For the same compound, the GI50 (K562) was > 100 µM (inactive), the GI50 (KM12) was > 100 µM (inactive) and the GI50 (LOX IMVI) was > 100 µM (inactive). For the same compound, the GI50 (M14) was > 100 µM (inactive), the GI50 (MDA-MB-231) was > 100 µM (inactive) and the GI50 (MDA-N) was > 100 µM (inactive). For the same compound, the GI50 (MOLT-4) was > 100 µM (inactive), the GI50 (Malme-3M) was > 100 µM (inactive) and the GI50 (NCI-H226) was > 100 µM (inactive). The GI50 (NCI-H23) was > 100 µM (inactive), the GI50 (NCI-H460) was > 100 µM (inactive) and the GI50 (NCI-H522) was > 100 µM (inactive). The GI50 (NCI/ADR-RES) was > 100 µM (inactive), the GI50 (OVCAR-3) was > 100 µM (inactive) and the GI50 (OVCAR-4) was > 100 µM (inactive). For the same compound, the GI50 (OVCAR-5) was > 100 µM (inactive), the GI50 (OVCAR-8) was > 100 µM (inactive) and the GI50 (PC-3) was > 100 µM (inactive). The GI50 (RPMI-8226) was > 100 µM (inactive), the GI50 (RXF 393) was > 100 µM (inactive) and the GI50 (SF-268) was > 100 µM (inactive). For the same compound, the GI50 (SF-539) was > 100 µM (inactive), the GI50 (SK-MEL-28) was > 100 µM (inactive) and the GI50 (SK-MEL-2) was > 100 µM (inactive). For the same compound, the GI50 (SK-MEL-5) was > 100 µM (inactive), the GI50 (SN12C) was > 100 µM (inactive) and the GI50 (SNB-19) was > 100 µM (inactive). For the same compound, the GI50 (SNB-75) was > 100 µM (inactive), the GI50 (SR) was > 100 µM (inactive) and the GI50 (SW-620) was > 100 µM (inactive). For the same compound, the GI50 (TK-10) was > 100 µM (inactive), the GI50 (U-251) was > 100 µM (inactive) and the GI50 (UACC-257) was > 100 µM (inactive). The GI50 (UACC-62) was > 100 µM (inactive) and the GI50 (UO-31) was > 100 µM (inactive).
